What was measured:
Format in all cases: in vivo
[1] = tested on: adult engorged female ticks (Rhipicephalus microplus); assay: Rhipicephalus (Boophilus) microplus injection test; details: 168 h, egg deposition after 7 days, read-out: activity (efficacy: infertile eggs); for pest or weed control at 4 pg: application rate 4 pg/animal; for pest or weed control at 0.02 mg: application rate 20 μg/animal
Outline: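 Efficacy is scored from egg fertility, with 100% meaning every egg infertile and 0% every egg fertile. Five engorged females per test received 1 μL DMSO solution abdominally. Eggs of unclear fertility were kept until hatching, about 42 days.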

[2] = tested on: fall armyworm larvae (Spodoptera frugiperda); assay: Spodoptera frugiperda spray test; details: 168 h, read-out: activity (mortality)
Outline: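 Compound in acetone/DMF, diluted in water with 1000 ppm alkylarylpolyglycol ether emulsifier, sprayed on maize leaf sections. Dried leaves infested with fall armyworm larvae; % mortality after 7 days (100% = all killed, 0% = none).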

[3] = tested on: green peach aphid (Myzus persicae); assay: Myzus persicae oral test; details: 120 h, application rate 4 ppm, after 5 days
Outline: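 Acetone stock (1 pbw compound/100 pbw solvent) diluted in water; mixed with sugar-supplemented IPL41 medium; parafilm-sealed; mixed aphid population sucks through film; mortality % read at 5 d.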

[4] = tested on: Aedes aegypti strain MONHEIM; assay: Aedes aegypti test (AEDSAE surface treatment & contact assay); details: 24 hours after contact, read-out: efficacy (mortality); for mortality at 20 mg/m2: surface concentration 20 mg/m^2, exposure 30 minutes; for mortality at 4 mg/m2: surface concentration 4 mg/m^2, exposure 30 minutes
Outline: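 Compound in acetone (2 mg/ml) with 2000 ppm RME pipetted onto glazed tile and dried; adult Aedes aegypti MONHEIM exposed 30 min. Percent mortality scored 24 h after contact.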

[5] = tested on: adult unfed cat fleas (Ctenocephalides felis); assay: Ctenocephalides felis oral test; details: 48 h, read-out: activity (mortality)
Outline: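 About 20 adult unfed fleas fed through parafilm on cattle blood containing compound (DMSO stock diluted in blood), blood held at 37 °C and fleas at room temperature. Mortality (%) scored after 2 days.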

[6] = tested on: Rhipicephalus microplus larvae (strain Parkhurst, resistant against synthetic pyrethroids); assay: Rhipicephalus (Boophilus) microplus in-vitro contact test, larval cattle tick; details: after 48 hours, read-out: activity (efficacy: larvae dead or moribund); for pest or weed control at 100 g/ha: application rate 1 pg/cm^2 (=100 g/ha); for pest or weed control at 500 g/ha: application rate 5 pg/cm^2 (=500 g/ha)
Outline: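 Acetone solutions coated onto inner walls of glass tubes by rotation (900 ppm giving 5 μg/cm^2); after evaporation, 20-50 larvae added per tube and held at 27° C., 85% relative humidity. Efficacy read after 48 h from negative geotactic behaviour; 100% = all larvae dead or moribund.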

[7] = tested on: Culex quinquefasciatus strain P00; assay: Culex quinquefasciatus test (CULXFA surface treatment & contact assay); details: 24 hours after contact, read-out: efficacy (mortality)
Procedure: Culex quinquefasciatus Test (CULXFA Surface Treatment & Contact Assay)
Solvent: Aceton+2000 ppm rapeseed oil methyl ester (RME)
In order to produce a sufficient, active ingredient containing solution it is necessary to solve the test compound in the solvent-mix (acetone at 2 mg/ml/RME 2 000 ppm). This solution is pipetted onto a glazed tile and after evaporation of the acetone, adult mosquitoes of the species Culex quinquefasciatus strain P00 are placed onto the dried surface. The exposure time is 30 minutes. Mortality in percent (%) is determined 24 hours after contact of the insects to the treated surface. 100% mortality means that all tested insects are dead, whereas 0% means that no insect died.

[8] = tested on: adult brown dog ticks (Rhipicephalus sanguineus); assay: Rhipicephalus sanguineus in-vitro contact test, adult brown dog ticks; details: after 48 hours, read-out: activity (efficacy: ticks dead or moribund); for pest or weed control at 100 g/ha: application rate 1 pg/cm^2 (=100 g/ha); for pest or weed control at 5 µg/cm2, 500 g/ha: application rate 5 μg/cm^2 (=500 g/ha)
Outline: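 Efficacy (%) reflects the fraction of adult ticks dead or moribund after 48 h of contact with a dried acetone film on tube walls at 5 μg/cm^2 (from 900 ppm). Moribund status was assessed by inability to climb away from heat at 45-50° C.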

[9] = tested on: cattle ticks (Rhipicephalus microplus) strain Parkhurst, SP-resistant; assay: Rhipicephalus (Boophilus) microplus dip test; details: 168 h, application rate 100 ppm, egg deposition after 7 days, read-out: activity (efficacy: infertile eggs)
Procedure: Rhipicephalus (Boophilus) microplus—Din Test
Test animal: cattle ticks (Rhipicephalus microplus) strain Parkhurst, SP-resistant
Solvent: dimethyl sulfoxide
To produce a suitable preparation of active compound, 10 mg of active compound are dissolved in 0.5 mL solvent, and the concentrate is diluted with water to the desired concentration.
This compound solution is pipetted into tubes. 8-10 engorged, adult, female cattle ticks (Rhipicephalus microplus) are placed in perforated tubes. These tubes are immersed in the aqueous compound solution until the ticks are completely moistened. After the liquid has drained off, the ticks are transferred to a filter paper in a plastic tray and stored in a climate chamber.
After 7 days egg deposition of fertile eggs is monitored. Eggs where fertility is not visible are stored in a climate chamber till hatching after about 42 days. An efficacy of 100% means all eggs are infertile; 0% means all eggs are fertile.

[10] = tested on: larvae of the banded cucumber beetle (Diabrotica balteata); assay: Diabrotica balteata spray test; details: 168 h, application rate 100 g/ha (=32 pg/well), after 7 days, read-out: activity (efficacy: seedlings grown)
Outline: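 Wheat seedlings, germinated 1 day on agar (5 seeds/well), sprayed with active compound in acetone/DMF diluted in water containing 1000 ppm emulsifier, then infested with 10-20 D. balteata larvae. Efficacy (%) scored after 7 days: 100% = seedlings grown as untreated uninfested control, 0% = no seedlings grown.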

[11] = tested on: southern root-knot nematode (Meloidogyne incognita); assay: Meloidogyne incognita test; details: 336 h, application rate 20 ppm, after 14 days, read-out: nematicidal activity (based on gall formation)
Procedure: Meloidoyne incognita—Test
Solvent: 125.0 parts by weight of acetone
To produce a suitable preparation of active compound, 1 part by weight of active compound is mixed with the stated amount of solvent, and the concentrate is diluted with water to the desired concentration.
Vessels are filled with sand, a solution of the active ingredient, a suspension containing eggs and larvae of the southern root-knot nematode (Meloidogyne incognita) and salad seeds. The salad seeds germinate and the seedlings grow. Galls develop in the roots.
After 14 days the nematicidal activity is determined based on the percentage of gall formation. 100% means no galls were found and 0% means the number of galls found on the roots of the treated plants was equal to that in untreated control plants.

[12] = tested on: green peach aphid (Myzus persicae); assay: Myzus persicae spray test; details: 120 h, application rate 100 g/ha, after 5 days
Outline: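 Chinese cabbage leaf disks carrying all instars of M. persicae sprayed with compound in acetone/DMF, diluted in water with 1000 ppm alkylarylpolyglycol ether emulsifier. Percent mortality scored after 5 days (100% = all aphids killed).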

[13] = tested on: larvae of the southern green stink bug (Nezara viridula); assay: Nezara viridula spray test; details: 96 h, after 4 days; for mortality at 100 g/ha: application rate 100 g/ha; for mortality at 500 g/ha: application rate 500 g/ha
Outline: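 Compound in acetone/dimethylformamide, diluted in water with 1000 ppm alkylarylpolyglycol ether emulsifier, sprayed onto barley plants carrying stink bug larvae. Mortality (%) scored after 4 days, 100% meaning all insects killed.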

[14] = tested on: adult cat fleas (Ctenocephalides felis); assay: Ctenocephalides felis in-vitro contact test, adult cat flea; details: application rate 5 μg/cm^2 (=500 g/ha), after 48 hours, read-out: activity (efficacy: fleas dead or moribund)
Outline: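 Acetone solutions of compound coated onto inner walls of glass tubes (900 ppm giving […]); after drying, 5-10 adult Ctenocephalides felis added and held at room temperature. At 48 h, fleas placed on a 45-50° C heating plate; those unable to climb away scored dead or moribund, expressed as % efficacy.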

| SMILES | pest or weed control at 4 pg [1] [%] | pest or weed control at 0.02 mg [1] [%] | mortality at 100 g/ha [2] [%] | mortality at 4 ppm [3] [%] | mortality at 20 mg/m2 [4] [%] | mortality at 100 ppm [5] [%] | pest or weed control at 100 g/ha [6] [%] | pest or weed control at 500 g/ha [6] [%] | pest or weed control at 100 g/ha [8] [%] | pest or weed control at 5 µg/cm2, 500 g/ha [8] [%] | pest or weed control at 100 g/ha [10] [%] | pest or weed control at 20 ppm [11] [%] | mortality at 100 g/ha [13] [%] | pest or weed control at 5 µg/cm2 [14] [%] | further results |
| --- | --- | --- | --- | --- | --- | --- | --- | --- | --- | --- | --- | --- | --- | --- | --- |
| C[C@H](NC(=O)c1cc(C(F)(F)F)cc(S(=O)(=O)C2CC2)c1)c1nc(C2CC2)nn1-c1ccc(C#N)cn1 [I-15] | 100 | 100 | 100 | 100 | 80 to 100 | 100 | 100 | 100 | 100 | 100 | – | – | – | – | mortality at 4 mg/m2 ([7]; surface concentration 4 mg/m^2, exposure 30 minutes): 80 to 100%; pest or weed control at 100 ppm [9]: 80% |
| CC(C)c1nc([C@H](C)NC(=O)c2cc(Cl)cc(S(=O)(=O)C3CC3)c2)n(-c2ccc(C#N)cn2)n1 [I-18] | 100 | 100 | – | 100 | – | 80 | 90 | 90 | – | 100 | 100 | 100 | – | – | – |
| CC(C)c1nc([C@H](C)NC(=O)c2cc(Cl)cc(S(=O)(=O)CC(F)(F)F)c2)n(-c2ccc(C#N)cn2)n1 [I-21, 3-chloro-N-{(1S)-1-[1-(5-cyanopyridin-2-yl)-3-isopropyl-1H-1,2,4-triazol-5-yl]ethyl}-5-[(2,2,2-trifluoroethyl)sulfonyl]benzamide] | 100 | 100 | – | – | – | – | – | – | – | – | – | 90 | – | – | mortality at 100 g/ha [12]: 90% |
| C[C@H](NC(=O)c1cc(Cl)cc(S(=O)(=O)C2CC2)c1)c1nc(C2CC2)nn1-c1ccc(C#N)cn1 [I-22] | 100 | 100 | 100 | 100 | – | 100 | 100 | 100 | – | 80 | 100 | 100 | – | – | – |
| CCS(=O)(=O)c1cc(Cl)cc(C(=O)N[C@@H](C)c2ncnn2-c2ccc(C#N)cn2)c1 [II-20] | 100 | 100 | 83 | 100 | 80 to 100 | – | 100 | 100 | – | – | – | 90 | 100 | 100 | mortality at 500 g/ha [13]: 100%; mortality at 500 g/ha [2]: 100%; mortality at 4 mg/m2 [4]: 80 to 100%; mortality at 20 mg/m2 ([7]; surface concentration 20 mg/m^2, exposure 30 minutes): 80 to 100% |
| C[C@H](NC(=O)c1cc(Cl)cc(S(=O)(=O)C2CC2)c1)c1ncnn1-c1ccc(C#N)cn1 [II-21] | 100 | 100 | 100 | 100 | 80 to 100 | – | 100 | 100 | – | – | – | 90 | 90 | 100 | mortality at 500 g/ha [13]: 100%; mortality at 500 g/ha [2]: 100%; mortality at 4 mg/m2 [4]: 80 to 100% |
| C[C@H](NC(=O)c1cc(C(F)F)cc(C2CC2)c1)c1ncnn1-c1ccc(C#N)cn1 [II-60] | 100 | – | 100 | 100 | – | 90 | 100 | 100 | 100 | 100 | 100 | 90 | 90 | 100 | – |
| Cc1nc([C@H](C)NC(=O)c2cc(OC(F)F)cc(C3CC3)c2)n(-c2ccc(C#N)cn2)n1 [II-63] | 100 | – | 100 | 100 | – | – | 100 | 100 | 100 | 100 | 100 | 90 | – | 100 | mortality at 100 g/ha [12]: 100% |

— US20260206761A1, “HETEROARYL-TRIAZOLE COMPOUNDS AS PESTICIDES” (Bayer Aktiengesellschaft, priority 2019, published 2026)
